These results are taken from patent US4566984A, “Ether polycarboxylates” (The Procter & Gamble Company, priority 1984, dated 1986).

Structures can show the parent of a compound that is named as a salt.

This data set is described as follows: Calcium Binding Constants Determination (calcium selective electrode titration). In kind it is physicochemical. As to conditions: for Calcium Ion Binding Constants, Log KCa, pH 7.6 / Calcium Ion Binding Constants, Log KCa, pH 9.5: 35° C., 0.1 M ionic strength. The source says: A computer system (Hewlett-Packard) with digital voltmeters was used to collect and analyze data from an Orion calcium selective electrode and a linear syringe buret (Sage Instruments syringe pump plus a linear potentiometer). […] Volumetric accuracy was better than +/- 0.5%.
Three hundred data pairs of [Ca total] vs 10^(E/S), which is a linear measure of [Ca free], were collected and corrected for dilution during each titration. S is the Nernst equation slope, ca. 29 mv/decade, and E is the calcium electrode voltage. Calcium ion was titrated into buffer solution. Here, L represents the sequestering ligand. A ligand-free standard titration calibrated the electrode response. […] A third titration, adding Ca ion to a solution of a fixed [L tot] and fixed [Mg tot] was compared with KCa at different [Ca tot]/[L tot] ratios to reveal KMg at those same ratios. [formula]
This line was extrapolated back to [Ca free]=0 and [Ca tot] at that point represented a measure of calcium binding capacity.

Turning to `O=P(O)(O)OP(=O)(O)OP(=O)(O)O` [Sodium tripolyphosphate, reference compound], the “Calcium Ion Binding Constants, Log KCa, pH 7.6” value is given as 3.1 and the “Calcium Ion Binding Constants, Log KCa, pH 9.5” value is given as 4.9.
The like results for `O=C([O-])CN(CC(=O)[O-])CC(=O)[O-].[Na+].[Na+].[Na+]` [Nitrilotriacetic acid, sodium salt, reference compound] were, in that order, 3.3 and 5.5.
Turning to `O=C(O)COC(CC(=O)O)C(=O)O` (stereo not drawn) [2-oxa-1,3,4 butanetricarboxylic acid, sodium salt, reference compound], the “Calcium Ion Binding Constants, Log KCa, pH 9.5” value amounted to 4.4.
Turning to `O=C(O)COC(CC(=O)O)(C(=O)O)C(=O)O` [Compound 5, 3,3-dicarboxy-4-oxa-1,6 hexanedioic acid, tetrasodium salt], the “Calcium Ion Binding Constants, Log KCa, pH 7.6” value was 5.3; the “Calcium Ion Binding Constants, Log KCa, pH 9.5” value came to 5.5; the “calcium binding relative to sodium tripolyphosphate and sodium nitrilotriacetate” value is “at least equivalent”; the “calcium binding relative to two prior art ether carboxylates and sodium citrate” value is on record as “clear advantage in calcium binding”.
In the case of `O=C([O-])C1CCC(C(=O)[O-])C(C(=O)[O-])(C(=O)[O-])O1.[Na+].[Na+].[Na+].[Na+]` (stereo not drawn) [Compound 7, Oxacyclohexane-2,2,3,6-tetracarboxylic acid, tetrasodium salt], the “Calcium Ion Binding Constants, Log KCa, pH 9.5” value is reported as 6.2; the “calcium binding relative to sodium tripolyphosphate and sodium nitrilotriacetate” value was “at least equivalent”; the “calcium binding relative to two prior art ether carboxylates and sodium citrate” value is “clear advantage in calcium binding”.
